The subject of one experiment is Candida tropicalis. The experiment is described as follows: Antifungal activity against Candida tropicalis after 18 hr by broth microdilution technique. It is filed as functional. A general note: In broth dilution the organism is exposed to a series of concentrations in liquid medium.
For the next experiment, the system named is Enterococcus faecalis. Briefly: Antibacterial activity against Enterococcus faecalis after 18 hr by broth microdilution technique. It is filed as functional.
In a further experiment the test system is Pseudomonas aeruginosa. Briefly: Antibacterial activity against Pseudomonas aeruginosa after 18 hr by broth microdilution technique. In kind it is functional.
The test system of another experiment is Bacillus subtilis. The experiment is described as follows: Antibacterial activity against Bacillus subtilis after 18 hr by broth microdilution technique. In kind it is functional.
A further experiment has as its system Aspergillus niger. Briefly: Antifungal activity against Aspergillus niger after 18 hr by broth microdilution technique. In kind it is functional.
Another experiment has as its system Staphylococcus aureus. The experiment is described as follows: Antibacterial activity against Staphylococcus aureus after 18 hr by broth microdilution technique. In kind it is functional.
The next experiment deals with Saccharomyces cerevisiae. The experiment is described as follows: Antifungal activity against Saccharomyces cerevisiae after 18 hr by broth microdilution technique. In kind it is functional.
The next experiment concerns Escherichia coli. The experiment is described as follows: Antibacterial activity against Escherichia coli after 18 hr by broth microdilution technique. In kind it is functional.
In experiment [1] the test system is Mycobacterium tuberculosis. Briefly: Antimycobacterial activity against Mycobacterium tuberculosis H37Rv after 21 days by broth dilution method. In kind it is functional. The note with it: 504 h.
The next experiment has as its system Klebsiella pneumoniae. Briefly: Antibacterial activity against Klebsiella pneumoniae after 18 hr by broth microdilution technique. It is filed as functional.
Another experiment concerns A549. The experiment is described as follows: Cytotoxicity against Homo sapiens (human) A549 cells after 72 hr by MTT assay. In kind it is cell-based. Conditions: A549, 72 h. Background: Formazan colour is commonly taken as a measure of viable cells.
The subject of a further experiment is Vero. The experiment is described as follows: Cytotoxicity against Chlorocebus aethiops (African green monkey) Vero cells after 72 hr by MTT assay. In kind it is cell-based. The note with it: Chlorocebus sabaeus.

pIC50: −log10 of the molar value. ≈ marks a conversion by molar mass, not a printed value.

Usually MIC stands for the lowest concentration that inhibits growth of the organism. A higher MIC goes with a need for much substance. On to `Cc1ccc(C)n1-c1ccc(C(=O)NN)cc1`, for which the minimal inhibitory concentration (MIC) against Candida tropicalis amounted to 62.5 µg/mL (≈ 273 µM); against Enterococcus faecalis it was 62.5 µg/mL (≈ 273 µM); in the experiment with Pseudomonas aeruginosa, 500 µg/mL (≈ 2180 µM); in the experiment on Bacillus subtilis, 62.5 µg/mL (≈ 273 µM); in the experiment on Aspergillus niger, 62.5 µg/mL (≈ 273 µM); in the experiment on Staphylococcus aureus, 62.5 µg/mL (≈ 273 µM). Also, the minimal inhibitory concentration (MIC) is 62.5 µg/mL (≈ 273 µM) in the experiment on Saccharomyces cerevisiae, 500 µg/mL (≈ 2180 µM) against Escherichia coli, 62.5 µg/mL (≈ 273 µM) in [1] and 62.5 µg/mL (≈ 273 µM) against Klebsiella pneumoniae.

In general, pIC50 refers to the negative decadic logarithm of the IC50, by convention in mol/L. As to `O=[N+]([O-])c1ccccc1-c1nnc(-c2ccc(-n3cccc3)cc2)o1`, the MIC against Candida tropicalis came to 31.2 µg/mL (≈ 94 µM); against Enterococcus faecalis, 16 µg/mL (≈ 48.1 µM); against Pseudomonas aeruginosa, 4 µg/mL (≈ 12 µM); against Bacillus subtilis, 4 µg/mL (≈ 12 µM); in the experiment on Aspergillus niger it was 31.2 µg/mL (≈ 94 µM); in the experiment with Staphylococcus aureus, 31.2 µg/mL (≈ 94 µM). Further, the minimal inhibitory concentration (MIC) is 31.2 µg/mL (≈ 94 µM) in the experiment with Saccharomyces cerevisiae, 4 µg/mL (≈ 12 µM) against Escherichia coli, 2 µg/mL (≈ 6.02 µM) in experiment [1] and more than 500 µg/mL against Klebsiella pneumoniae. For the same molecule, the pIC50 in the experiment on A549 and in the experiment on Vero was 3.57 in each case.

For the molecule `O=[N+]([O-])c1cccc(-c2nnc(-c3ccc(-n4cccc4)cc3)o2)c1`, the minimum inhibitory concentration (MIC) with Candida tropicalis came out at 31.2 µg/mL (≈ 94 µM); against Enterococcus faecalis it was 31.2 µg/mL (≈ 94 µM); against Pseudomonas aeruginosa, 8 µg/mL (≈ 24.1 µM); in the experiment on Bacillus subtilis, 8 µg/mL (≈ 24.1 µM); against Aspergillus niger, 31.2 µg/mL (≈ 94 µM); against Staphylococcus aureus, 31.2 µg/mL (≈ 94 µM). The MIC in the experiment with Saccharomyces cerevisiae was 31.2 µg/mL (≈ 94 µM); with Escherichia coli, 8 µg/mL (≈ 24.1 µM); in experiment [1], 8 µg/mL (≈ 24.1 µM); in the experiment on Klebsiella pneumoniae, more than 500 µg/mL. For the same molecule, the negative-log IC50 (pIC50) with A549 was 3.59; in the experiment on Vero, 3.60.

As to `O=[N+]([O-])c1ccc(-c2nnc(-c3ccc(-n4cccc4)cc3)o2)cc1`, the MIC with Candida tropicalis amounted to 31.2 µg/mL (≈ 94 µM); in the experiment with Enterococcus faecalis, 16 µg/mL (≈ 48.1 µM); in the experiment with Pseudomonas aeruginosa, 4 µg/mL (≈ 12 µM); against Bacillus subtilis, 4 µg/mL (≈ 12 µM); in the experiment with Aspergillus niger, 31.2 µg/mL (≈ 94 µM); against Staphylococcus aureus, 31.2 µg/mL (≈ 94 µM). Further, the minimum inhibitory concentration (MIC) with Saccharomyces cerevisiae was 31.2 µg/mL (≈ 94 µM); against Escherichia coli, 4 µg/mL (≈ 12 µM); in [1], 2 µg/mL (≈ 6.02 µM); with Klebsiella pneumoniae, more than 500 µg/mL. Also, the negative logarithm of the IC50 (pIC50) with A549 and in the experiment with Vero was 3.59 each time.

With `Clc1ccc(-c2nnc(-c3ccc(-n4cccc4)cc3)o2)cc1`, the minimum inhibitory concentration (MIC) is 4 µg/mL (≈ 12.4 µM) with Candida tropicalis; 16 µg/mL (≈ 49.7 µM) in the experiment on Enterococcus faecalis; 4 µg/mL (≈ 12.4 µM) against Pseudomonas aeruginosa; 4 µg/mL (≈ 12.4 µM) in the experiment with Bacillus subtilis; 16 µg/mL (≈ 49.7 µM) against Aspergillus niger; 31.2 µg/mL (≈ 97.1 µM) in the experiment on Staphylococcus aureus. In addition, the minimum inhibitory concentration (MIC) in the experiment on Saccharomyces cerevisiae is 8 µg/mL (≈ 24.9 µM); in the experiment with Escherichia coli, 4 µg/mL (≈ 12.4 µM); in experiment [1] it was 2 µg/mL (≈ 6.22 µM); against Klebsiella pneumoniae it was more than 500 µg/mL. In addition, the values for the pIC50 in the experiment with A549 and with Vero were 3.59 and 3.60, respectively.

Take `Fc1ccc(-c2nnc(-c3ccc(-n4cccc4)cc3)o2)cc1C(F)(F)F`: the MIC was found to be 2 µg/mL (≈ 5.36 µM) against Candida tropicalis; 8 µg/mL (≈ 21.4 µM) with Enterococcus faecalis; 2 µg/mL (≈ 5.36 µM) in the experiment with Pseudomonas aeruginosa; 1 µg/mL (≈ 2.68 µM) in the experiment with Bacillus subtilis; 4 µg/mL (≈ 10.7 µM) with Aspergillus niger; 31.2 µg/mL (≈ 83.7 µM) with Staphylococcus aureus. The MIC with Saccharomyces cerevisiae was 4 µg/mL (≈ 10.7 µM); with Escherichia coli it was 2 µg/mL (≈ 5.36 µM); in experiment [1], 1 µg/mL (≈ 2.68 µM); against Klebsiella pneumoniae, more than 500 µg/mL. For the same molecule, the pIC50 in the experiment on A549 and with Vero was 3.57 in each case.

Regarding `Cc1ccc(C)n1-c1ccc(C(=O)N/N=C/c2ccc(O)cc2)cc1`, the MIC was 16 µg/mL (≈ 48 µM) against Candida tropicalis; 16 µg/mL (≈ 48 µM) against Enterococcus faecalis; 500 µg/mL (≈ 1500 µM) in the experiment on Pseudomonas aeruginosa; 31.2 µg/mL (≈ 93.7 µM) against Bacillus subtilis; 16 µg/mL (≈ 48 µM) in the experiment with Aspergillus niger; 16 µg/mL (≈ 48 µM) against Staphylococcus aureus. In addition, the minimum inhibitory concentration (MIC) in the experiment on Saccharomyces cerevisiae came to 16 µg/mL (≈ 48 µM); with Escherichia coli, 500 µg/mL (≈ 1500 µM); in [1], 31.2 µg/mL (≈ 93.7 µM); in the experiment on Klebsiella pneumoniae, 62.5 µg/mL (≈ 187 µM).

As for `Cc1ccc(C)n1-c1ccc(C(=O)N/N=C/c2ccc(N(C)C)cc2)cc1`, the MIC against Candida tropicalis turned out to be 31.2 µg/mL (≈ 86.7 µM); in the experiment on Enterococcus faecalis it was 31.2 µg/mL (≈ 86.7 µM); in the experiment on Pseudomonas aeruginosa it was 500 µg/mL (≈ 1390 µM); in the experiment on Bacillus subtilis, 31.2 µg/mL (≈ 86.7 µM); against Aspergillus niger, 31.2 µg/mL (≈ 86.7 µM); against Staphylococcus aureus, 31.2 µg/mL (≈ 86.7 µM). Besides, the MIC against Saccharomyces cerevisiae was determined as 31.2 µg/mL (≈ 86.7 µM); in the experiment on Escherichia coli it was 500 µg/mL (≈ 1390 µM); in experiment [1] it was 31.2 µg/mL (≈ 86.7 µM); with Klebsiella pneumoniae, 62.5 µg/mL (≈ 173 µM).

As for `CC(C)=NNC(=O)c1ccc(-n2c(C)ccc2C)cc1`, the minimal inhibitory concentration (MIC) in the experiment with Candida tropicalis was 31.2 µg/mL (≈ 116 µM); in the experiment with Enterococcus faecalis, 31.2 µg/mL (≈ 116 µM); with Pseudomonas aeruginosa, 500 µg/mL (≈ 1860 µM); against Bacillus subtilis it was 16 µg/mL (≈ 59.4 µM); with Aspergillus niger, 62.5 µg/mL (≈ 232 µM); with Staphylococcus aureus, 31.2 µg/mL (≈ 116 µM). The minimum inhibitory concentration (MIC) is 62.5 µg/mL (≈ 232 µM) in the experiment on Saccharomyces cerevisiae, 500 µg/mL (≈ 1860 µM) against Escherichia coli, 31.2 µg/mL (≈ 116 µM) in experiment [1] and 500 µg/mL (≈ 1860 µM) against Klebsiella pneumoniae.

For `C/C(=N/NC(=O)c1ccc(-n2c(C)ccc2C)cc1)c1ccccc1`, the minimum inhibitory concentration (MIC) against Candida tropicalis worked out at 62.5 µg/mL (≈ 189 µM); with Enterococcus faecalis, 31.2 µg/mL (≈ 94.3 µM); with Pseudomonas aeruginosa it was 500 µg/mL (≈ 1510 µM); against Bacillus subtilis it was 16 µg/mL (≈ 48.3 µM); in the experiment on Aspergillus niger it was 62.5 µg/mL (≈ 189 µM); against Staphylococcus aureus, 62.5 µg/mL (≈ 189 µM). Moreover, the MIC with Saccharomyces cerevisiae was found to be 62.5 µg/mL (≈ 189 µM); in the experiment on Escherichia coli, 500 µg/mL (≈ 1510 µM); in [1], 31.2 µg/mL (≈ 94.3 µM); against Klebsiella pneumoniae it was 500 µg/mL (≈ 1510 µM).

Turning to `Cc1ccc(C)n1-c1ccc(C(=O)NN=C(c2ccccc2)c2ccccc2)cc1`, the MIC in the experiment with Candida tropicalis came to 62.5 µg/mL (≈ 159 µM); against Enterococcus faecalis it was 31.2 µg/mL (≈ 79.4 µM); against Pseudomonas aeruginosa, 500 µg/mL (≈ 1270 µM); in the experiment on Bacillus subtilis, 31.2 µg/mL (≈ 79.4 µM); with Aspergillus niger, 62.5 µg/mL (≈ 159 µM); in the experiment on Staphylococcus aureus, 62.5 µg/mL (≈ 159 µM). The MIC with Saccharomyces cerevisiae amounted to 62.5 µg/mL (≈ 159 µM); in the experiment on Escherichia coli, 500 µg/mL (≈ 1270 µM); in experiment [1], 31.2 µg/mL (≈ 79.4 µM); against Klebsiella pneumoniae it was 500 µg/mL (≈ 1270 µM).

Values taken from ChEMBL document CHEMBL3046206, “Synthesis of new 4-(2,5-dimethylpyrrol-1-yl)/4-pyrrol-1-yl benzoic acid hydrazide analogs and some derived oxadiazole, triazole and pyrrole ring systems: a novel class of potential antibacterial, antifungal and antitubercular agents” (Med Chem Res, 2013).
